Source: patent publication US4771050A, “Thiolactam-n-acetic acid derivatives” (Takeda Chemical Industries, Ltd., priority 1986, dated 1988)
Read-outs that look alike come from different tables or passages of the source.

How the values were obtained:
[1] = system: washed rat platelets; assay: Inhibitory action on platelet aggregation (washed rat platelets); assay type: cell-based, rat (Spraque-Dawley); conditions: for inhibition at 300 µM: 3 × 10^-4 M; for inhibition at 100 µM: 10^-4 M
Description: 3. Inhibitory action on platelet aggregation
Effect of 3,4-dihydro-2,8-diisopropyl-3-thioxo-2H-1,4-benzoxazine-4-acetic acid on platelet aggregation was examined using washed rat platelets.
Platelet rich plasma (PRP) was prepared by centrifuging the blood at 150 xg for 15 min at room temperature. To prepare washed platelets, the PRP was centrifuged at 1500 xg for 10 min and the precipitated platelets were resuspended in Tyrode's solution. The number of platelets used was 7×10^5 cells/mm^3. Platelet aggregation was measured by the turbidmetric method using an aggregometer (Nikko Bioscience, Model PAR-4M, Tokyo). The test compound dissolved in 10 μl of water was added to 250 μl of washed platelet suspension and incubated at 37° C. for 3 min before 10 μl of aggregating agents ([…] of collagen, Nikko Bioscience or 10 μM of ADP, Shigma, St. Louis, Mo., at the final concentration) was added.

[2] = Acute toxicity in mice (oral); parameters: species or system mouse (ICR); conditions: in vivo, mouse, mortality during 14 days
Text: (§1) Acute toxicity of 3,4-dihydro-2,8-diisopropyl-3-thioxo-2H-1,4-benzoxazine-4-acetic acid was examined in mice and rats.
(§2) The various doses of the test compound suspended in 5% gum arabic solution were orally administered to male ICR mice (4 weeks old) and male Wistar rats (5 weeks old), and then mortality was observed during 14 days. Each group consisted of 5 animals.

[3] = Acute toxicity in rats (oral); parameters: species or system rat (Wistar); conditions: in vivo, rat, mortality during 14 days
Text: as §1, §2

[4] = target: T1, aldose reductase from human placenta (Homo sapiens, UniProt P15121); assay: Aldose reductase inhibition (in vitro study); assay type: biochemical; conditions: for inhibition at 1 µM: 10^-6 M; for inhibition at 0.1 µM: 10^-7 M
T1 construct: Partially purified aldose reductase from human placenta; from tissue; host or cells: human placenta
Text: 1. Aldose reductase inhibition (in vitro study)
Partially purified aldose reductase from human placenta was used for the test of aldose reductase inhibitory effect according to the method of S. Hayman et al. described in Journal of Biological Chemistry, 240, 877 (1965) or the method of J. H. Kinoshita et al. described in Metabolism, 28, Supplement 1, 462 (1979).

[5] = system: sorbitol accumulation in sciatic nerves of streptozocin diabetic rats; assay: Inhibition of sorbitol accumulation in the tissue of experimentally induced diabetic rat; assay type: in vivo, rat (Spraque-Dawley); conditions: for sorbitol accumulation: sciatic nerve, untreated control group = 100; for inhibition of sorbitol accumulation in vivo compared with control compounds (in words): vs control compounds A, B, C
Description: Spraque-Dawley rats (male, 5-7-week-old, 5 animals per group) were fasted for 18 hours, and received injection of 70 mg/kg of streptozocin (Cal Biochem Co.) into the caudal vein under anesthesia with ether, so that diabetic rats were obtained. From immediately after the injection of streptozocin these rats were given orally the test compound of 50 mg/kg or 30 mg/kg in the form of 5% gum arabic suspension twice a day (at 10 a.m. and 5 p.m.) for 2 days. During this period the rats were allowed to take CE-2 diet (Clea Japan, Inc.) and water ad libitum. In the morning on the 3rd day (9 a.m.) the rats were killed (decapitation and venesection), and immediately the sciatic nerves were isolated, from which sorbitol was extracted according to the method of M. J. Peterson et al. described in Metabolism, 28, 456 (1979) and the sorbitol level was determined by the enzymatic method of P.S. Clements et al. in Science, 166, 1007 (1969).

[6] = Rattus norvegicus, Platelet, inducer ADP, Mean ± SD (N = 3), read-out: percent inhibition of aggregation
[7] = Rattus norvegicus, Platelet, inducer collagen, Mean ± SD (N = 3), read-out: percent inhibition of aggregation
[8] = 30 mg/kg orally twice a day for 2 days
[9] = 50 mg/kg orally twice a day for 2 days
[10] = Rattus norvegicus, Platelet, read-out: percent inhibition of aggregation, inducer ADP, Mean ± SD (N = 3)

| SMILES | inhibition at 1 µM [4] [%] | inhibition at 0.1 µM [4] [%] | sorbitol accumulation [5, 8] [%] | sorbitol accumulation [5, 9] [%] | other results |
| --- | --- | --- | --- | --- | --- |
| CC(C)c1cccc2c1OC(C(C)C)C(=S)N2CC(=O)O (stereo not drawn) [Example 8, 3,4-dihydro-2,8-diisopropyl-3-thioxo-2H-1,4-benzoxazine-4-acetic acid] | 50.2 | 9.1 | 30 | – | inhibitory action compared with indomethacin (in words) ([1]; ADP-induced aggregation): more potent than that of indomethacin; inhibition at 300 µM [1, 6]: 42 ± 7.1%; inhibition at 100 µM [1, 6]: 90 ± 6%; inhibition at 300 µM [1, 7]: 24.1 ± 3.4%; inhibition at 30 µM ([1]; Rattus norvegicus, Platelet, inducer collagen, 3 × 10^-5 M, Mean ± SD (N = 3), read-out: percent inhibition of aggregation): 74.5 ± 5.5%; inhibition at 60 µM ([1]; Rattus norvegicus, Platelet, inducer collagen, 6 × 10^-5 M, Mean ± SD (N = 3), read-out: percent inhibition of aggregation): 46.5 ± 1.3%; inhibition at 100 µM [1, 7]: 31.8 ± 0.9%; inhibition of aggregation of washed platelets (in words) ([1]; induced by either collagen or ADP): inhibited aggregation of washed platelets induced by either collagen or ADP in a dose related manner; LD50 at 336 h [2]: 1880 mg/kg; LD50 at 336 h [3]: 2830 mg/kg |
| CC1Sc2ccccc2N(CC(=O)O)C1=S (stereo not drawn) [Control C, 3,4dihydro-2-methyl-3-thioxo-2H--1,4benzothiazine-4-acetic acid, reference compound] | 48.7 | 19.6 | – | 71 | – |
| COc1ccc2c(c1)c(CC(=O)O)c(C)n2C(=O)c1ccc(Cl)cc1 [Indomethacin, reference compound] | – | – | – | – | inhibition at 300 µM [1, 10]: 97.2 ± 6.4%; inhibition at 100 µM [1, 10]: 102 ± 8.4%; inhibition at 100 µM ([1]; Rattus norvegicus, Platelet, read-out: percent inhibition of aggregation, inducer collagen, Mean ± SD (N = 3)): 28.5 ± 1.9% |
| CCOc1cccc2c1OC(C(C)C)C(=S)N2CC(=O)O (stereo not drawn) [Example 12, 8-ethoxy-3,4-dihydro-2isopropyl3-thioxo-2H-1,4-benzoxazine-4-acetic acid] | 43 | 19.2 | 58 | – | – |
| CC(C)C1Oc2c(cccc2C(C)(C)C)N(CC(=O)O)C1=S (stereo not drawn) [Example 19, 8-t-butyl-3,4-dihydro-2-isopropyl-3-thioxo-2H-1,4-benzoxazine-4-acetic acid] | 39.3 | 8 | 15 | – | – |
| CC(C)C1Oc2c(Cl)cccc2N(CC(=O)O)C1=S (stereo not drawn) [Example 3, 8-chloro-3,4-dihydro-2-isopropyl-3-thioxo-2H-1,4-benzoxazine-4-acetic acid] | 48.9 | 8.9 | – | 23 | – |
| CCc1cccc2c1OC(C(C)C)C(=S)N2CC(=O)O (stereo not drawn) [Example 13, 8-ethyl-3,4-dihydro-2-isopropyl-3-thioxo-2H-1,4-benzoxazine-4-acetic acid] | 46.8 | 14.9 | 35 | – | – |
| COc1ccc2c(c1)OC(C(C)C)C(=S)N2CC(=O)O (stereo not drawn) [Example 7, 3,4-dihydro-2-isopropyl-7-methoxy-3-thioxo-2H-1,4-benzoxazine-4-acetic acid] | 50 | 14.9 | 27 | – | – |
| CC(C)C1Oc2c(F)cccc2N(CC(=O)O)C1=S (stereo not drawn) [Example 4, 8-fluoro-3,4-dihydro-2-isopropyl-3-thioxo-2H-1,4-benzoxazine-4-acetic acid] | 45.6 | 3.8 | 45 | 14 | – |
| CCC(C)C1Sc2ccccc2N(CC(=O)O)C1=S (stereo not drawn) [Example 11, 3,4-dihydro-2-(1-methylpropyl)-3-thioxo-2H-1,4-benzothiazine-4-acetic acid] | 47.1 | 15.2 | 67 | 38 | inhibition of sorbitol accumulation in vivo compared with control compounds (in words) [5]: The difference is particularly evident |
| CC(C)C1Oc2c(C3CCCCC3)cccc2N(CC(=O)O)C1=S (stereo not drawn) [Example 20, 8-cyclohexyl-3,4-dihydro-2-isopropyl-3-thioxo2H-1,4-benzoxazine-4-acetic acid] | 38.4 | 4.6 | 25 | – | – |
| CC(C)C1Oc2cc(F)ccc2N(CC(=O)O)C1=S (stereo not drawn) [Example 17, 7-fluoro-3,4-dihydro-2isopropyl3-thioxo-2H-1,4-benzoxazine-4-acetic acid] | 45.7 | 2.6 | 62 | – | – |

Further lines, with some results ahead:

| inhibition at 1 µM [4] [%] | inhibition at 0.1 µM [4] [%] | SMILES | sorbitol accumulation [5, 8] [%] | sorbitol accumulation [5, 9] [%] | other results |
| --- | --- | --- | --- | --- | --- |
| 43.1 | 15.7 | O=C(O)CN1C(=S)CSc2ccccc21 [Control B, 3,4dihydro-3-thioxo-2H--1,4benzothiazine-4-acetic acid, reference compound] | – | 78 | – |
| 50.8 | 25 | O=C(O)CN1C(=S)COc2ccc(F)cc21 [Control A, 6fluoro-3,4-dihydro-3-thioxo-2H--1,4benzoxazine-4-acetic acid, reference compound] | 73 | 60 | – |
| 43.9 | 8.7 | CC(C)C1Oc2ccc(F)cc2N(CC(=O)O)C1=S (stereo not drawn) [Example 2, 6-fluoro-3,4-dihydro-2-isopropyl-3-thioxo-2H-1,4-benzoxazine-4-acetic acid] | 33 | 12 | inhibition of sorbitol accumulation in vivo compared with control compounds (in words) [5]: The difference is particularly evident |
| 46.4 | 20 | CC(C)C1Sc2ccccc2N(CC(=O)O)C1=S (stereo not drawn) [Example 9, 3,4-dihydro-2-isopropyl-3-thioxo-2H-1,4-benzothiazine-4-acetic acid] | 60 | 46 | inhibition of sorbitol accumulation in vivo compared with control compounds (in words) [5]: The difference is particularly evident |
| 46.7 | 19.1 | CC(C)C1Oc2ccccc2N(CC(=O)O)C1=S (stereo not drawn) [Example 1, 3,4-dihydro-2-isopropyl-3-thioxo-2H-1,4-benzoxazine-4-acetic acid] | 51 | 18 | – |
| 48.1 | 17.3 | COc1cccc2c1OC(C(C)C)C(=S)N2CC(=O)O (stereo not drawn) [Example 5, 3,4-dihydro-2-isopropyl-8-methoxy-3-thioxo-2H-1,4-benzoxazine-4-acetic acid] | 29 | 11 | – |
| 48.2 | 9.4 | Cc1cccc2c1OC(C(C)C)C(=S)N2CC(=O)O (stereo not drawn) [Example 6, 3,4-dihydro-2-isopropyl-8-methyl-3-thioxo2H-1,4-benzoxazine-4-acetic acid] | 33 | 16 | – |
